The source of these data is ChEMBL document CHEMBL1201862, “PubChem BioAssay data set” (2004).

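Step 1: Grow cells in 96-well plates. Step 2: Expose to compound for 48 hours at 5 concentrations. Step 3: Interpolate endpoints linearly; if unreached, use highest concentration. GI50 = concentration required for 50% inhibition of growth.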 Calls of active or inactive are those of the source. No stated cut-off is given here; in the data, active = GI50 up to about 1.1 µM and inactive = higher. A value given as a limit tells only on which side of the number the result lay.

Among the test systems are COLO 205; OVCAR-8; EKVX; Malme-3M; HCT-116; NCI-H226; OVCAR-4; MDA-N; SK-MEL-28; SNB-19; NCI-H460; UACC-257; HCC 2998; OVCAR-5; SF-295; HL-60.
Test in all cases: inhibition of tumour cell growth, NCI panel, 48 h

For the compound `O=[N+]([O-])C(=C1NCCN1)/C(Cl)=C(/Cl)N1CCOCC1`, the GI50 in the experiment with COLO 205, with OVCAR-8, in the experiment on EKVX, in the experiment with Malme-3M, in the experiment with HCT-116 and in the experiment on NCI-H226 was > 100 µM (inactive) each time. Moreover, the GI50 in the experiment on OVCAR-4, with MDA-N, in the experiment on SK-MEL-28, in the experiment with SNB-19, with NCI-H460 and in the experiment on UACC-257 was > 100 µM (inactive) throughout. In addition, the GI50 in the experiment on HCC 2998, with OVCAR-5 and with SF-295 was > 100 µM (inactive) throughout.
For `C/C(=N\Nc1nc2ccccc2s1)c1cccc[n+]1[O-]`, the GI50 in the experiment on COLO 205 is 32.2 µM (inactive); with OVCAR-8 it was 30.2 µM (inactive); with EKVX it was 2.33 µM (inactive); with Malme-3M it was 1.09 µM (active); in the experiment on HCT-116, 7.55 µM (inactive); in the experiment on NCI-H226, 55.2 µM (inactive). The GI50 with OVCAR-4 is 86.3 µM (inactive); in the experiment on MDA-N it was 76.2 µM (inactive); with SK-MEL-28 it was > 100 µM (inactive); in the experiment on SNB-19, > 100 µM (inactive); with NCI-H460, 46.2 µM (inactive); in the experiment with UACC-257, 40.1 µM (inactive). The GI50 in the experiment with HCC 2998 was 0.0252 µM (active); in the experiment with OVCAR-5, 2.33 µM (inactive); in the experiment on SF-295 it was 0.594 µM (active).
Take `CCOC(=O)COc1ccc(/C=C/C(=O)c2ccc(OC)cc2)cc1`: the GI50 is 35.4 µM (inactive) with COLO 205; 24.5 µM (inactive) in the experiment with OVCAR-8; 27.8 µM (inactive) with EKVX; 28.2 µM (inactive) in the experiment with Malme-3M; 21.3 µM (inactive) with HCT-116; 26.7 µM (inactive) in the experiment with MDA-N. The GI50 was 19.3 µM (inactive) in the experiment with SK-MEL-28; 41.8 µM (inactive) with SNB-19; 27 µM (inactive) in the experiment on HL-60; 23.1 µM (inactive) with UACC-257; 23.7 µM (inactive) in the experiment on HCC 2998; 37.4 µM (inactive) in the experiment with OVCAR-5. In the experiment with SF-295, the GI50 is 29 µM (inactive).
As to `Cc1ccc(/C=N/Nc2cnccn2)s1`, the GI50 with COLO 205 is > 100 µM (inactive); in the experiment on OVCAR-8, > 100 µM (inactive); in the experiment on EKVX, 80.5 µM (inactive); with Malme-3M, > 100 µM (inactive); with HCT-116 it was > 100 µM (inactive); with NCI-H226, 38.7 µM (inactive). Further, the GI50 with OVCAR-4 is > 100 µM (inactive); in the experiment with MDA-N it was 99.3 µM (inactive); in the experiment with SK-MEL-28 it was > 100 µM (inactive); with SNB-19, > 100 µM (inactive); in the experiment with HL-60 it was > 100 µM (inactive); with UACC-257 it was > 100 µM (inactive). The GI50 with HCC 2998, with OVCAR-5 and in the experiment on SF-295 was > 100 µM (inactive) each time.
With `O=c1c2cc(I)ccc2nc(SCc2nncs2)n1Cc1ccccc1`, the GI50 in the experiment on COLO 205 is 20.2 µM (inactive); in the experiment with OVCAR-8 it was 36.5 µM (inactive); in the experiment on EKVX it was 7 µM (inactive); in the experiment with HCT-116 it was 11.6 µM (inactive); with NCI-H226, 23.8 µM (inactive); in the experiment with OVCAR-4 it was 12.6 µM (inactive). The GI50 is 23 µM (inactive) in the experiment with MDA-N; 90.2 µM (inactive) with SK-MEL-28; 19.5 µM (inactive) in the experiment with SNB-19; 7.62 µM (inactive) with NCI-H460; 22.1 µM (inactive) with HL-60; 10.5 µM (inactive) with UACC-257. In addition, the GI50 is 16.4 µM (inactive) with HCC 2998, 99.5 µM (inactive) with OVCAR-5 and 13.2 µM (inactive) in the experiment with SF-295.
As for `COC(=O)C1CCC(=S)N1C(=O)OCc1ccccc1` (centres undefined), the GI50 was > 100 µM (inactive) in the experiment with COLO 205; > 100 µM (inactive) with OVCAR-8; 49 µM (inactive) in the experiment with EKVX; > 100 µM (inactive) in the experiment on Malme-3M; 83.9 µM (inactive) with HCT-116; > 100 µM (inactive) with OVCAR-4. Moreover, the GI50 in the experiment on MDA-N was > 100 µM (inactive); in the experiment with SK-MEL-28 it was > 100 µM (inactive); in the experiment with SNB-19, > 100 µM (inactive); in the experiment on NCI-H460, 39.5 µM (inactive); with UACC-257, 66.4 µM (inactive); in the experiment with HCC 2998, 62.1 µM (inactive). Besides, the figures for the GI50 in the experiment on OVCAR-5 and in the experiment on SF-295 were > 100 µM (inactive) and 78 µM (inactive), respectively.
For `CC[C@@H]1CN2CCC1C[C@@H]2C(O)c1ccnc2ccc(OCCN3CCN(CCOc4ccc5nccc(C(O)[C@@H]6C[C@@H]7CCN6C[C@@H]7CC)c5c4)CC3)cc12` (some centres undefined), the GI50 in the experiment with COLO 205 is 14.7 µM (inactive); with OVCAR-8 it was 19.3 µM (inactive); in the experiment on EKVX, 17.1 µM (inactive); in the experiment on Malme-3M, 24.8 µM (inactive); in the experiment with HCT-116, 14.2 µM (inactive); in the experiment on OVCAR-4, 19.8 µM (inactive). Further, the GI50 is 12.9 µM (inactive) with MDA-N; 17.1 µM (inactive) with SK-MEL-28; 14.5 µM (inactive) with SNB-19; 17.3 µM (inactive) in the experiment with NCI-H460; 21.9 µM (inactive) in the experiment with HL-60; 16.1 µM (inactive) in the experiment with UACC-257. The GI50 was 9.48 µM (inactive) in the experiment on HCC 2998, 18.6 µM (inactive) in the experiment with OVCAR-5 and 16.3 µM (inactive) with SF-295.
As for `Clc1nc2n(c1/C=C/c1cccs1)CCS2`, the GI50 in the experiment on COLO 205 was 37.8 µM (inactive); in the experiment with OVCAR-8, 29.7 µM (inactive); with EKVX, 5.43 µM (inactive); in the experiment with Malme-3M, 90.8 µM (inactive); in the experiment with HCT-116 it was 25.4 µM (inactive); in the experiment with NCI-H226, 31.6 µM (inactive). Also, the GI50 in the experiment with OVCAR-4 is 64 µM (inactive); in the experiment with MDA-N, 36.5 µM (inactive); in the experiment with SK-MEL-28, 34.8 µM (inactive); in the experiment with SNB-19, 43.6 µM (inactive); with HL-60 it was 6 µM (inactive); in the experiment on UACC-257, 57.5 µM (inactive). The GI50 with HCC 2998 is 35.5 µM (inactive); in the experiment with OVCAR-5, 27.3 µM (inactive); with SF-295 it was 29.6 µM (inactive).
In the case of `CCOP(=O)(Nc1ccc(-c2ccc(N)cc2)cc1)OCC`, the GI50 was > 100 µM (inactive) in the experiment on COLO 205; > 100 µM (inactive) with OVCAR-8; 38.9 µM (inactive) in the experiment on EKVX; > 100 µM (inactive) in the experiment with Malme-3M; 99.8 µM (inactive) in the experiment on HCT-116; > 100 µM (inactive) in the experiment with OVCAR-4. Besides, the GI50 was > 100 µM (inactive) with MDA-N; > 100 µM (inactive) in the experiment on SK-MEL-28; 94.8 µM (inactive) in the experiment with SNB-19; > 100 µM (inactive) with NCI-H460; > 100 µM (inactive) with UACC-257; > 100 µM (inactive) with HCC 2998. The GI50 is 51.6 µM (inactive) in the experiment on OVCAR-5 and 84.5 µM (inactive) in the experiment with SF-295.
As for `COC(=O)CSc1nc2[nH]c(SC)c(C(N)=O)c2c(=O)n1-c1ccccc1`, the GI50 in the experiment with COLO 205, with OVCAR-8, with EKVX, in the experiment with Malme-3M, in the experiment on OVCAR-4 and with MDA-N was > 10 µM (inactive) in each case. Further, the GI50 in the experiment on SK-MEL-28, in the experiment on HL-60, in the experiment with UACC-257, in the experiment on HCC 2998 and with SF-295 was > 10 µM (inactive) in each case.
As to `O=C(O)c1ccc(N/C(=C(/C(Cl)=C(Cl)Cl)[N+](=O)[O-])n2nnc3ccccc32)cc1`, the GI50 in the experiment with COLO 205, in the experiment with OVCAR-8, in the experiment on EKVX, with Malme-3M, in the experiment on HCT-116 and in the experiment with NCI-H226 was > 100 µM (inactive) in each case. The GI50 in the experiment on OVCAR-4, in the experiment with MDA-N, with SK-MEL-28, in the experiment with SNB-19, in the experiment with NCI-H460 and with UACC-257 was > 100 µM (inactive) throughout. Also, the GI50 in the experiment on HCC 2998, with OVCAR-5 and in the experiment with SF-295 was > 100 µM (inactive) each time.
On to `C[C@]12CC[C@H]3[C@@H](CCC4=CC(=O)C=C[C@@]43O)[C@@H]1CCC2=O`, for which the GI50 in the experiment with COLO 205 is > 100 µM (inactive); in the experiment on OVCAR-8, 81.1 µM (inactive); in the experiment on EKVX it was 70.8 µM (inactive); with HCT-116, > 100 µM (inactive); with NCI-H226, 69.8 µM (inactive); in the experiment with MDA-N, > 100 µM (inactive). Also, the GI50 with SK-MEL-28, in the experiment with SNB-19, with NCI-H460, with UACC-257, in the experiment with HCC 2998 and in the experiment with OVCAR-5 was > 100 µM (inactive) throughout. Further, the GI50 in the experiment on SF-295 was > 100 µM (inactive).
With `CCC(C#N)N(Cc1cccc(CN(C(C)=O)C(C#N)CC)c1)C(C)=O` (centres undefined), the GI50 is > 100 µM (inactive) with COLO 205; > 100 µM (inactive) in the experiment with OVCAR-8; > 100 µM (inactive) with EKVX; > 100 µM (inactive) with Malme-3M; > 100 µM (inactive) with HCT-116; 44.5 µM (inactive) in the experiment on NCI-H226. The GI50 in the experiment with OVCAR-4 was 31.4 µM (inactive); in the experiment on MDA-N it was > 100 µM (inactive); in the experiment on SNB-19 it was > 100 µM (inactive); in the experiment with HL-60 it was > 100 µM (inactive); in the experiment on UACC-257, > 100 µM (inactive); in the experiment on HCC 2998, 97.1 µM (inactive). The GI50 in the experiment with OVCAR-5 and in the experiment on SF-295 was > 100 µM (inactive) throughout.
On to `COc1cc(C2S/C(=C/c3ccccc3)C(=O)N2c2ccccn2)cc(OC)c1OC` (centres undefined), for which the GI50 in the experiment on COLO 205 is 29 µM (inactive); in the experiment with OVCAR-8 it was 9.2 µM (inactive); in the experiment on EKVX, 24.4 µM (inactive); with Malme-3M it was 13.4 µM (inactive); in the experiment on HCT-116 it was 7.16 µM (inactive); with NCI-H226, 45.9 µM (inactive). Further, the GI50 with OVCAR-4 was 19.2 µM (inactive); in the experiment on MDA-N it was 14.1 µM (inactive); in the experiment with SK-MEL-28, 23 µM (inactive); with SNB-19, 18.1 µM (inactive); in the experiment with HL-60, 12.4 µM (inactive); in the experiment on UACC-257 it was 33.1 µM (inactive). Further, the figures for the GI50 in the experiment with HCC 2998, in the experiment on OVCAR-5 and in the experiment with SF-295 were 15.7 µM (inactive), 20.8 µM (inactive) and 24.5 µM (inactive), respectively.
